This is an account of results in ChEMBL document CHEMBL3593242, “Crystal structures of the apo form and a complex of human LMW-PTP with a phosphonic acid provide new evidence of a secondary site potentially related to the anchorage of natural substrates” (Bioorg Med Chem, 2015).

Experiment [1] concerns the target T1, Low molecular weight phosphotyrosine protein phosphatase (Mus musculus, UniProt Q9D358).
T1 sequence (Q9D358 whole entry): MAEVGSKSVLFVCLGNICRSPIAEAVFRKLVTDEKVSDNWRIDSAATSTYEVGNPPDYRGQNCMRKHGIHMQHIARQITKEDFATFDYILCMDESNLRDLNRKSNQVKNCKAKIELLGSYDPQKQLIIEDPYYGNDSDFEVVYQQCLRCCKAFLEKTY
Put plainly: Competitive inhibition of mouse LMW-PTP expressed in Escherichia coli using pNPP substrate by Dixon plot.

The target in experiment [2] is Alkaline phosphatase, placental type (Homo sapiens, UniProt P05187). Kind of experiment: Inhibition of human placental alkaline phosphatase using p-nitrophenyl phosphate substrate.
In experiment [3] the target is T2, Ectonucleotide pyrophosphatase/phosphodiesterase family member 3 (Bos taurus, UniProt P15396).
T2 sequence (P15396 whole entry): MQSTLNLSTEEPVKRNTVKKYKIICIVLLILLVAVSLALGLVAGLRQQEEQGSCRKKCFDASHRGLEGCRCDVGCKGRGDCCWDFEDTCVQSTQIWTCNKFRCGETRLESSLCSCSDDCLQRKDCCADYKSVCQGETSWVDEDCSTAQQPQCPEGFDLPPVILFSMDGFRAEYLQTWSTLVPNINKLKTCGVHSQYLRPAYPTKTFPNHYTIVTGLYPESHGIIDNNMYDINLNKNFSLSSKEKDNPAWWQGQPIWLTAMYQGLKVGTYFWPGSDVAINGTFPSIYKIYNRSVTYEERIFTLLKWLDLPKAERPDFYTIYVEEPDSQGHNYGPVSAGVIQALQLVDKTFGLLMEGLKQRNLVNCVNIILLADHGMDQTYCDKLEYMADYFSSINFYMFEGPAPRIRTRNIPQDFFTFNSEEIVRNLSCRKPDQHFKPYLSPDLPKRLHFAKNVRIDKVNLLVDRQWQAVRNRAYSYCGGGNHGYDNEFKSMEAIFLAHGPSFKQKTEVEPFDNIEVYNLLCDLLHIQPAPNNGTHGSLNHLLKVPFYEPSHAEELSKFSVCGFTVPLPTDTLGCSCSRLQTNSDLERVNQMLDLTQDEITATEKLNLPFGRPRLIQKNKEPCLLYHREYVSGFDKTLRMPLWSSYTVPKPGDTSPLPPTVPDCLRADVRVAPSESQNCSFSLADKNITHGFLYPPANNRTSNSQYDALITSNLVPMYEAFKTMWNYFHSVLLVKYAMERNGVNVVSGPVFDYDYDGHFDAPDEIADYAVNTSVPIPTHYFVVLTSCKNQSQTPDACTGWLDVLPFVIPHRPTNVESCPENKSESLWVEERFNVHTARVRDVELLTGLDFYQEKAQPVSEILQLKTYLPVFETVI
Kind of experiment: Inhibition of bovine intestinal 5'-nucleotide phosphodiesterase using 4-nitrophenyl phenylphosphonate substrate by spectrophotometry.

A short description of experiment [4]: Inhibition of Yersinia-protein YopH using pNPP substrate.
The nature of experiment [5]: Inhibition of bovine heart acid phosphatase. Further details: species or system Bos taurus.
In experiment [6] the target is T3, Tyrosine-protein phosphatase non-receptor type 1 (Homo sapiens, UniProt P18031).
T3 sequence (P18031 whole entry): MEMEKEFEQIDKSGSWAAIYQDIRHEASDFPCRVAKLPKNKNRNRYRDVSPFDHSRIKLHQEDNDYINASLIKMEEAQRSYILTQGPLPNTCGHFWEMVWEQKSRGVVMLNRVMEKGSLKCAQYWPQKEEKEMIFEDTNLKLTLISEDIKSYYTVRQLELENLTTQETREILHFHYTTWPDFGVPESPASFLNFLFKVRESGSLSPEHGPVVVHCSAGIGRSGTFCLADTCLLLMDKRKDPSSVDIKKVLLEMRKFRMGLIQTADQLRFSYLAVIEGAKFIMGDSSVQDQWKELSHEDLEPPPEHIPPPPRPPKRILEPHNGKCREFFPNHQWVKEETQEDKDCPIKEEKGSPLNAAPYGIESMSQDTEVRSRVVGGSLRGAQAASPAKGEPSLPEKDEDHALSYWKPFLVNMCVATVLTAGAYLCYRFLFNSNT
Kind of experiment: Inhibition of PTP1B (unknown origin) using […] substrate.

The structures appear in SMILES notation.

Chain of Alkaline phosphatase, placental type (P05187 whole entry): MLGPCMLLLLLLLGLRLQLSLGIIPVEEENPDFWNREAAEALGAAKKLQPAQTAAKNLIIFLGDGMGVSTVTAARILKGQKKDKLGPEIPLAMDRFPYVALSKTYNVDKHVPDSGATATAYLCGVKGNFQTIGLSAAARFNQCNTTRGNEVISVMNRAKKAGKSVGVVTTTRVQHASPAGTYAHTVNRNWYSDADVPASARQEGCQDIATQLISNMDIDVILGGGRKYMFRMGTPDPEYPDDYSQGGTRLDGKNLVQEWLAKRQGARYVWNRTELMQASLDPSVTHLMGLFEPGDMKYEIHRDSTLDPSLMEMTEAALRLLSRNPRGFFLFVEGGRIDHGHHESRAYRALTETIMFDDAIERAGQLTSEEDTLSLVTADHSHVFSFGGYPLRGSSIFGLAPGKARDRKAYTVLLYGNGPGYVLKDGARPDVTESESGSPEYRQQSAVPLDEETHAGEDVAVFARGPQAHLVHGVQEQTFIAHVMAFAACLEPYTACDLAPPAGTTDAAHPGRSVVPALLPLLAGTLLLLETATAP

What is called Ki is a measure of affinity in units of concentration, obtained from inhibition or displacement. Read a low Ki as tighter binding. The molecule `O=P(O)(O)Cc1ccc(CCl)cc1` had a Ki in experiment [1] of 47 µM.
In the case of `O=P(O)(O)Cc1ccccc1` [BENZYLPHOSPHONIC ACID], the Ki came out at 580 µM in experiment [2]; 1400 µM in experiment [3]; 5000 µM in experiment [4]; 4600 µM in experiment [5]; 3000 µM in experiment [6].
`O=[N+]([O-])c1ccc(CP(=O)(O)O)cc1`: the Ki in experiment [1] was found to be 124 µM.
